The record followed here is patent publication US20230331674A1 (priority 2020, published 2023).

Molecules are shown by their SMILES.

The test system of one series is Caco-2 cell monolayers. Description: in vitro. How it is done:
(§1) They were grown on Transwell® culture inserts with a polycarbonate membrane (diameter, 12 mm; pore size, 0.4 μm). 50,000 cells/filter membranes were used for seeding and the medium was changed every two days. At day 18, transepithelial electrical resistance (TEER) was measured for each filter with Caco-2 cell monolayers. […] The samples were acidified by dilution with the same volume of 0.01 M HCl before fluorescence measurements.
(§2) Ringer buffer with 10 mM d-glucose or 10 mM mannitol on apical and basolateral side of the tissue, respectively, was used as an incubation saline. […] The experiment started by the addition of stock solutions of (±)-N-((1-benzylpiperidin-3-yl)methyl)-N-(2-methoxyethyl)naphthalene-2-sulfonamide hydrochloride and fluorescein in the donor compartment to provide final 100 μM donor concentration of (±)-N-((1-benzylpiperidin-3-yl)methyl)-N-(2-methoxyethyl)naphthalene-2-sulfonamide and 20 μM fluorescein. The stock solutions were added either to the apical or to the basolateral compartment to obtain bidirectional permeability measurements. Six samples were withdrawn in 20 min intervals. Each time 300 μl was taken from the 1500 μL basolateral acceptor compartment and 100 μL from the 500 μL apical acceptor compartment. These volumes were immediately replaced by the appropriate fresh incubation saline. The concentrations of (±)-N-((1-benzylpiperidin-3-yl)methyl)-N-(2-methoxyethyl)naphthalene-2-sulfonamide in the samples were determined by HPLC-UV immediately after the experiment.

Another series is described as follows: in vitro. Conditions: human, Caco-2. The procedure: as §1, §2
Series [1] relates to SH-SY5Y cells treated with Aβ(1-42). In words: Neuroprotective effect against Aβ(1-42) cytotoxicity, propidium iodide flow cytometry. As to conditions: 5 μM Aβ(1-42), 48 h. The series is classed as cell-based, human. How it is done: SH—SY5Y cells were seeded into a 24-well culture plate (1.2×10^5/well) and next day, treated as described above. After 48 h treatment, cells were washed with pre-warmed PBS and further stained with PI solution (30 μM) for 15 min at 37° C. Cells were then analyzed for cytotoxicity by flow cytometry on FACS Calibur (BD Bioscience, San Jose, CA, USA). The percentage of PI positive cells (PI^pos) was evaluated using FlowJo software (Ashland, OR, USA) and results are presented as a relative fold increase of PI^pos corresponding vehicle treatment (DMSO control).

Another series concerns SH-SY5Y cells. In words: Cell viability assay (MTS) in SH-SY5Y cells. Conditions: 48 h.
Series [2] concerns the target mAChE (murine acetylcholinesterase) (Mus musculus (Mouse), UniProt P21836). In kind it is biochemical. Conditions: screening at 10 μM; n.i. = no inhibiton. The text has this: To determine the blank value (b), phosphate-buffered solution replaced the enzyme solution.
Series [3] in a line: Plasma protein binding, equilibrium dialysis. In kind it is in vitro ADME. Conditions: pH 7.4, human plasma, 37° C. The procedure:
The equilibrium dialysis technique was used to separate the fraction of the bound to human plasma protein. The assay was performed in a 96-well format in a dialysis block constructed from Teflon to minimize the unspecific binding (Banker M. J. et al. J. Pharm. Sci. 2003, 92, 967-974). Plasma from human was used as the default protein containing matrix. […] Acebutolol, quinidine and warfarin were tested in each assay as reference compounds, which yield protein binding that represent low, medium and high bindings to human plasma proteins, respectively. The dialysate compartment was loaded with the phosphate buffered saline (PBS, pH 7.4), and the sample side was loaded with equal volume of the spiked protein matrix. The dialysis plate was then sealed and incubated at 37° C. for 4 h. A control sample (n=2) was prepared from the spiked protein matrix in the same manner as the assay sample (without dialysis). The control sample served as the basis for the recovery determination. After the incubation, samples were taken from each compartment, diluted with phosphate buffer followed by addition of acetonitrile and centrifugation. The supernatants were then used for HPLC-MS/MS analysis using selected reaction monitoring. […]
The recovery determination serves as an indicator of reliability of the calculated protein binding value. […]

Series [4] concerns cryopreserved human hepatocytes. In words: Metabolite identification in cryopreserved hepatocytes. The series is classed as in vitro ADME. As to conditions: 120 min, HPLC-MS. The procedure:
Principal Phase I (oxidative) and Phase II (conjugative) metabolites have been detected and characterized following previously described procedure (Obach R. S. et al. J. Pharmacol. Exp. Ther. 1997, 283, 46-58). Briefly, the test compound 2 ([…]) was incubated at 37° C. in cryopreserved human hepatocytes (0.7 million cells/mL) for 120 min. Samples were taken at time 0 and the end of the incubation (2 h), respectively. A control sample (no test compound added) was also prepared and incubated for the same period of time. After the reaction was stopped by addition of acetonitrile, the supernatants were subjected to HPLC-MS analysis. Separation of analytes was achieved using Acquity HSS T3 column (100×2.1 mm, 1.8 μm, Waters). The sample solutions-supernatants (5 μL) were injected and eluted at a flow rate of 0.5 mL min-1, using a linear gradient of mobile phase A (0.1% formic acid in water) and mobile phase B (0.1% formic acid in MeCN). The gradient for mobile phase B was: 0-1.0 min, 5%; 1.0-7.0 min, 5%-80%; 7.0-7.5 min, 80%; 7.5-8.0 min, 80%-5%; 8.0-10.0 min, 5%. […] Retention times and the respective MS and MS/MS spectra of the species detected in the incubated sample and not in time-zero or blank sample were identified and recorded.

mAChE (murine acetylcholinesterase), sequence (P21836 32-614): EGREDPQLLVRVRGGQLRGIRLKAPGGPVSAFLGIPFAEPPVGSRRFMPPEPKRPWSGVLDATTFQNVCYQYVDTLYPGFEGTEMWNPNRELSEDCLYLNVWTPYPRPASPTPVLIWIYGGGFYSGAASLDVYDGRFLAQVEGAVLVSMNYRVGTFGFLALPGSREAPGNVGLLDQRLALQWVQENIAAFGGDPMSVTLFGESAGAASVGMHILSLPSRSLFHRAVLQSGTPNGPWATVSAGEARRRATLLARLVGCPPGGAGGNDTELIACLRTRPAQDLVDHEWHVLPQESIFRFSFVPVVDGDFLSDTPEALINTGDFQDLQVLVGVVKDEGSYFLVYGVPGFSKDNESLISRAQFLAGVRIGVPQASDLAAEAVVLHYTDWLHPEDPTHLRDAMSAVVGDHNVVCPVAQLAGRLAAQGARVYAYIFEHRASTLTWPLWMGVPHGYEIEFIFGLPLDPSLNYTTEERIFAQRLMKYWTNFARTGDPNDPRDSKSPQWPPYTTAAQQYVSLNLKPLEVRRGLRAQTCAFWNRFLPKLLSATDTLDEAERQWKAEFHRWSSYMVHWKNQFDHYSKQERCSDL

With `COCCN(CC1CCCN(Cc2ccccc2)C1)S(=O)(=O)c1ccc2ccccc2c1` (racemic) [(±)-N-((1-benzylpiperidin-3-yl)methyl)-N-(2-methoxyethyl)naphthalene-2-sulfonamide], in the series with Caco-2 cell monolayers, the “Permeability class according to the biopharmaceutical classification system” value was “high”. In the series “in vitro”, this compound gave an apparent permeability from apical to basolateral (Papp A→B) at 120 min, 100 μM of 30 ± 10.7 ×10⁻⁶ cm/s and a Papp B→A at 120 min, 100 μM of 29.1 ± 2.9 ×10⁻⁶ cm/s. Moreover, the “Neuroprotective effect against Aβ(1-42) toxicity” value in series [1] (compound 1-10 μM) is “clear dose-response neuroprotective effect”. Also, the “Effect on Aβ(1-42)-induced cell death” value in series [1] (compound at 10 μM) is “reversed Aβ(1-42)-induced cell death”. The LD50 in the series on SH-SY5Y cells was 31.40 µM. For the same compound, the “IC50 + STD (μM) or % inhibition at 10 μM mAChE” value in series [2] is listed as “n.i”. This compound also had a fraction unbound at 4 h, 10 μM in series [3] of 0.04. For the same compound, the Possible metabolites result in series [4] was “N-debenzylated, demethylated, and a demethylated+glucoronide products”.
